Positions of bridges follow the written chain, without caps; N, C: chain ends. Residues, ends and D or L forms follow the SMILES beside them.
What was measured:
FabG from S. aureus = biological target: T1, FabG from S. aureus (Staphylococcus aureus, UniProt P0A0H9); test: Surface plasmon resonance binding; conditions: tachyplesin III on CM5 chip, FabG 1.25-10 μg/mL injected, HBS-N buffer
T1 construct: His tag (C); made in house; host or cells: E. coli BL21 DE3 (vector pET28a)
T1 sequence (P0A0H9 1-246): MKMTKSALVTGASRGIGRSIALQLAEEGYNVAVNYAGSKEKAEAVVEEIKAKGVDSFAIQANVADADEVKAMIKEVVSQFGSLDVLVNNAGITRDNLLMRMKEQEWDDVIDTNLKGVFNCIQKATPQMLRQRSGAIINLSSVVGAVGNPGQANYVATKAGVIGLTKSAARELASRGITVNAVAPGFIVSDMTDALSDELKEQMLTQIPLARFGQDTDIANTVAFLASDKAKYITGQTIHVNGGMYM
Description: N-terminal His-tagged FabG from E. coli and C-terminal His-tagged FabG from Staphylococcus aureus were cloned into the NcoI and XhoI cloning sites of the vector pET28a, expressed in BL21 DE3 E. coli and further purified with Ni resin ([Kristan et al., 2009]; [Srinivas and Cronan, 2017]). The binding interaction between tachyplesin III and FabG was analyzed by surface plasmon resonance (SPR) with a Biocore 3000 (Biocore, Piscataway, NJ, United States). Briefly, tachyplesin III was adsorbed onto a CM5 sensor chip using an amine-coupling kit (GE Healthcare, Little Chalfont, United Kingdom) to obtain approximately 1000 resonance units. […] The binding affinity of FabG for tachyplesin III was determined by BIAevaluation 3.0 software (Biacore) with a 1:1 Langmuir binding model for the kinetic calculation ([Wei et al., 2013]).
FIGURE 7 Tachyplesin III binding with FabG inhibits its enzyme activities in vitro, probably by blocking the active site. Binding interactions between tachyplesin III and FabG from E. coli (A) or from S. aureus (E) were analyzed by surface plasmon resonance (SPR) with a Biocore 3000 (Biocore, Piscataway, NJ, United States). […] Statistical significance was analyzed by one-way ANOVA followed by the Newman–Keuls multiple-comparisons test, ^∗∗p < 0.01, ^∗p < 0.05.

E. coli 513 = test: Transcriptome analysis (RNA sequencing, FPKM, DESeq); assay type: cell-based, Escherichia coli; conditions: Ec; Ta 16 μg/ml, 30 min, 37°C
Description: The Vitek 32 system (bioMerieux, France) and 16S rDNA sequencing were used to verify the clinical isolates A. baumannii 1408, P. aeruginosa 1409, Klebsiella pneumoniae 5 and E. coli 513, which were grown overnight in Luria-Bertani (LB) medium at 37°C with constant shaking at 220 rpm to reach the middle of their logarithmic growth phase. […] After the addition of 2 volumes of RNAprotect Bacteria Reagent (QIAGEN) to stabilized RNA, samples were vortexed for 5 s, incubated for 5 min at room temperature (15–25°C) and collected by centrifugation at 4°C for 5 min at 4000 g.
RNA isolation and sequencing were performed by Novogene Bioinformatics Technology Co., Ltd. (Beijing, China) as previously described ([Liu B. et al., 2014]). Clean reads were mapped to the corresponding bacterial genomes using Bowtie 2 software ([Langmead and Salzberg, 2012]). Gene expression was calculated using the FPKM (expected number of fragments per kilobase of transcript sequence per millions of base pairs sequenced) method with HTSeq software (union model) ([Anders et al., 2015]). Differentially expressed genes were selected based on the DESeq R package with Padj values < 0.05 ([Anders and Huber, 2010]). KEGG pathway analysis was performed using KOBAS (2.0), and the corrected p value cut-off was set at 0.05 ([Li et al., 2015]).

[1] = system: Escherichia coli strain DH5α; conditions: 37°C, 2 mg/ml, stability judged by MIC against DH5α, tested during the first 6 h
Description: These studies were carried out as we previously reported with slight modifications and briefly introduced as follows ([Liu et al., 2017]). […] Cytotoxicity in different cell lines was assessed using the Cell Proliferation Kit II (XTT) (Roche), and cytotoxicity in hemocytes was evaluated by the increase in the absorbance at 540 nm after peptide incubation. Membrane rupture was indicated by the entrance of the DNA-binding fluorescent dye PI into MDR clinical isolates of P. aeruginosa strain 1409. Membrane translocation of N-terminal FITC-conjugated tachyplesin III (purity ≥ 95%, synthesized by GL Biochem Co., Ltd, Shanghai, China) into MDR clinical isolates of Acinetobacter baumannii strain 1408 were detected by confocal laser-scanning microscopy.
Tachyplesin III (2 mg/ml) was incubated in either sterile deionized water or mouse serum at 37°C for various lengths of time, aliquots were taken, and MICs against DH5α cells were tested. Stability of the MIC indicates the stability of tachyplesin III.

K. pneumoniae 5 = test: MIC against clinical isolate; assay type: cell-based, Klebsiella pneumoniae
FabG gene = test: FabG transcription level by quantitative real-time PCR; assay type: cell-based, A. baumannii, E. coli, K. pneumoniae, P. aeruginosa; conditions: all four bacteria, RNAs from transcriptome analysis (16 μg/ml, 30 min), 2^-ΔΔCT, rpsL reference
Description: Quantitative real-time PCR (RT-PCR) was performed following the 2^-ΔΔCT method with RNAs from the aforementioned transcriptome analysis ([Livak and Schmittgen, 2001]; [Liu C. et al., 2014]). Untreated pathogen strains were used as the calibrator strains, and corresponding ribosomal rpsL genes were used as housekeeping reference genes with the primers shown in Supplementary Table S1 ([Dumas et al., 2006]).
FIGURE 5 Expression of FabG increased after tachyplesin treatment. Quantitative real-time PCR was performed following the 2^-ΔΔCT method. Untreated pathogen strains were used as the calibrator strains, and the corresponding ribosomal rpsL genes were used as housekeeping reference gene with the primers shown in Supplementary Table S1.

CC[C@H](C)[C@@H]1NC(=O)CNC(=O)[C@H](CCCNC(=N)N)NC(=O)[C@H](Cc2ccc(O)cc2)NC(=O)[C@@H]2CSSC[C@H](NC1=O)C(=O)N[C@@H](Cc1ccc(O)cc1)C(=O)N[C@@H](CCCNC(=N)N)C(=O)N[C@@H](CCCCN)C(=O)N[C@H](C(=O)N[C@@H](CCCNC(=N)N)C(N)=O)CSSC[C@H](NC(=O)[C@H](Cc1c[nH]c3ccccc13)NC(=O)[C@@H](N)CCCCN)C(=O)N[C@@H](Cc1ccccc1)C(=O)N[C@@H](CCCNC(=N)N)C(=O)N[C@@H](C(C)C)C(=O)N2 [tachyplesin III] (H-KWCFRVCYRGICYRKCR-NH2; disulfide 3-16, 7-12 (inferred); N-terminus and C-terminus assumed)
binding with FabG (SPR) (FabG from S. aureus): could bind
Fold change after Ta treatment, gene b1093 (3-ketoacyl-acyl carrier protein reductase) (E. coli 513): 1.11
Fold change after Ta treatment, gene b3846 (3-hydroxyacyl-CoA dehydrogenase) (E. coli 513): 2.3
time stable in mouse serum [1]: at least 6 h
16 μg/ml tachyplesin III expressed as multiple of MIC (K. pneumoniae 5): 1/2
FabG expression by quantitative real-time PCR (FabG gene): elevations
